Data published in the supplement of paper PMC8960247.
Where a name gives a salt, the structure may show the parent alone. ± gives the standard error.

Assays:
621-102 (TSC2-deficient) = assay: relative viability vs DMSO; higher = less cytotoxic; details: serum: 10% FBS, 72 h
621-103 (TSC2-rescued) = assay: as above; details: serum: 10% FBS, 72 h
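Further: immortalized renal angiomyolipoma cells stably carrying empty vector or TSC2, dosed in 384-well plates in DMEM, viability normalized to vehicle-treated wells within each plate.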

Row | SMILES | relative viability (621-102 (TSC2-deficient); 0.0001 µM) | relative viability (621-102 (TSC2-deficient); 0.001 µM) | relative viability (621-102 (TSC2-deficient); 0.01 µM) | relative viability (621-102 (TSC2-deficient); 0.1 µM) | relative viability (621-102 (TSC2-deficient); 1 µM) | relative viability (621-102 (TSC2-deficient); 10 µM) | relative viability (621-103 (TSC2-rescued); 0.0001 µM) | relative viability (621-103 (TSC2-rescued); 0.001 µM) | relative viability (621-103 (TSC2-rescued); 0.01 µM) | relative viability (621-103 (TSC2-rescued); 0.1 µM) | relative viability (621-103 (TSC2-rescued); 1 µM) | relative viability (621-103 (TSC2-rescued); 10 µM)
1 | CN1CCN(C2=Nc3cc(Cl)ccc3Nc3ccccc32)CC1 [Clozapine] | 100 ± 1.7% | 108 ± 1.1% | 105.2 ± 0.32% | 104 ± 2.2% | 94.53 ± 0.49% | 98.1 ± 3.2% | 101.3 ± 0.79% | 113 ± 2.2% | 109 ± 1.1% | 105 ± 0.64% | 109 ± 0.24% | 92.73 ± 0.46%
2 | CC1=C2C[C@H]3[C@@H](CC=C4C[C@@H](O)CC[C@@]43C)[C@@H]2CC[C@]12O[C@@H]1C[C@H](C)CN[C@H]1[C@H]2C [Cyclopamine] | 107 ± 4% | 95.64 ± 0.15% | 99.7 ± 0.74% | 103 ± 1.3% | 112.9 ± 0.35% | 95.49 ± 0.81% | 100 ± 1.7% | 101 ± 1.4% | 98.16 ± 0.86% | 100.3 ± 0.2% | 99.22 ± 0.46% | 98.9 ± 2.2%
3 | N#CCNC(=O)c1ccc(-c2ccnc(Nc3ccc(N4CCOCC4)cc3)n2)cc1 [Cyt387] | 101 ± 5.9% | 109 ± 4.2% | 110 ± 1% | 113 ± 1.4% | 104 ± 0.75% | 73.3 ± 2.2% | 115 ± 0.87% | 105.2 ± 0.63% | 110 ± 1.1% | 110.2 ± 0.81% | 106 ± 3.2% | 83.38 ± 0.51%
4 | Nc1ccn([C@@H]2O[C@H](CO)[C@@H](O)[C@@H]2O)c(=O)n1 [Cytarabine (Cytosar-U)] | 88.2 ± 4% | 93.49 ± 0.71% | 96.2 ± 2.2% | 89.35 ± 0.62% | 74.5 ± 2.8% | 49.4 ± 1.1% | 115 ± 4.8% | 106 ± 4.1% | 110 ± 0.82% | 105.2 ± 0.25% | 88.313 ± 0.062% | 38 ± 0.93%
5 | C[C@H](NC(=O)Cc1cc(F)cc(F)c1)C(=O)N[C@H](C(=O)OC(C)(C)C)c1ccccc1 [DAPT (GSI-IX)] | 104 ± 4.3% | 99.1 ± 1.5% | 100 ± 2.3% | 97.82 ± 0.41% | 97.7 ± 4.1% | 97.1 ± 5.9% | 94.6 ± 6.5% | 105.2 ± 0.68% | 103.7 ± 0.49% | 101.4 ± 0.89% | 97.2 ± 2.8% | 98.2 ± 1.4%
6 | C[C@]12CC[C@H](O)CC1=CC[C@@H]1[C@@H]2CC[C@]2(C)C(=O)CC[C@@H]12 [DHEA] | 105.05 ± 0.093% | 105 ± 1.6% | 99.6 ± 3.3% | 104 ± 2.9% | 97.2 ± 3.6% | 107 ± 1.8% | 73.1 ± 4.3% | 81.7 ± 1.7% | 80.2 ± 3.5% | 86.4 ± 7% | 79 ± 6% | 71.2 ± 8.4%
7 | CC(C)(C)OC(=O)N[C@H]1CCCCC/C=C\[C@@H]2C[C@@]2(C(=O)NS(=O)(=O)C2CC2)NC(=O)[C@@H]2C[C@@H](OC(=O)N3Cc4cccc(F)c4C3)CN2C1=O [Danoprevir] | 105 ± 3.4% | 111 ± 3.4% | 113 ± 1.2% | 114 ± 3.5% | 97.9 ± 4.1% | 105.7 ± 0.94% | 100.3 ± 0.43% | 104.2 ± 0.88% | 101 ± 3.4% | 101.8 ± 0.53% | 98.14 ± 0.84% | 99.4 ± 1.5%
8 | Cc1nc(Nc2ncc(C(=O)Nc3c(C)cccc3Cl)s2)cc(N2CCN(CCO)CC2)n1 [Dasatinib] | 71.7 ± 5.2% | 85.1 ± 7.2% | 70.7 ± 7.3% | 67.6 ± 4.7% | 67.5 ± 5.2% | 49.9 ± 2.6% | 92.9 ± 1.8% | 79 ± 2% | 74.3 ± 4.4% | 73.9 ± 5.5% | 61.2 ± 4.1% | 47.4 ± 2%
9 | CN(C)CCOC(c1ccccc1)c1ccccc1 [Diphenhydramine HCl] | 105 ± 6% | 97.7 ± 7.7% | 99.9 ± 7.9% | 110 ± 1.5% | 91.1 ± 2.4% | 101 ± 4.7% | 89.4 ± 6.2% | 82.9 ± 10% | 106.2 ± 0.96% | 97.3 ± 2.9% | 97.6 ± 1.7% | 99.2 ± 1.8%
10 | OCCN(CCO)c1nc(N2CCCCC2)c2nc(N(CCO)CCO)nc(N3CCCCC3)c2n1 [Dipyridamole] | 102 ± 3% | 98.3 ± 2.2% | 101.5 ± 1% | 95.2 ± 2.5% | 96.7 ± 2.7% | 93.4 ± 8.5% | 101 ± 2.4% | 103.1 ± 0.96% | 103 ± 2.1% | 104 ± 5.4% | 101 ± 6.3% | 101 ± 1.5%
11 | CC(=O)O[C@@]12CO[C@@H]1C[C@H](O)[C@@]1(C)C(=O)[C@H](O)C3=C(C)[C@@H](OC(=O)[C@H](O)[C@@H](NC(=O)OC(C)(C)C)c4ccccc4)C[C@@](O)([C@@H](OC(=O)c4ccccc4)[C@H]21)C3(C)C [Docetaxel] | 36.3 ± 1.5% | 32.17 ± 0.058% | 33.5 ± 1.1% | 32.5 ± 0.43% | 31.8 ± 0.54% | 41.7 ± 1.1% | 57 ± 0.81% | 50.6 ± 1% | 42.9 ± 1.7% | 33.2 ± 0.49% | 35.55 ± 0.17% | 55.5 ± 2%
12 | O=c1[nH]c2ccccc2n1CCCN1CCC(n2c(=O)[nH]c3cc(Cl)ccc32)CC1 [Domperidone (Motilium)] | 102.7 ± 0.59% | 96 ± 10% | 95.3 ± 3.6% | 106 ± 1.3% | 98.8 ± 1.5% | 90.8 ± 2.7% | 99.17 ± 0.87% | 93.61 ± 0.19% | 103.3 ± 0.16% | 110 ± 2% | 101.1 ± 0.98% | 96.7 ± 2%
13 | COc1cc2c(cc1OC)C(=O)C(CC1CCN(Cc3ccccc3)CC1)C2 (centres undefined) [Donepezil HCl] | 96.2 ± 3.9% | 108 ± 4.1% | 103.6 ± 0.26% | 111 ± 1.3% | 101.6 ± 0.44% | 86.8 ± 1.3% | 93.1 ± 3% | 105 ± 2.5% | 102 ± 4.3% | 106 ± 1.8% | 104 ± 3.4% | 93.21 ± 0.93%
14 | NCCc1ccc(O)c(O)c1 [Dopamine HCl] | 97.5 ± 9.6% | 112 ± 3.6% | 107 ± 3% | 105 ± 2.4% | 89.7 ± 7.8% | 74.1 ± 1.9% | 102.3 ± 0.35% | 99.6 ± 4.5% | 99 ± 1.9% | 100.1 ± 1% | 92.8 ± 2% | 95.4 ± 3.1%
15 | CCN[C@H]1C[C@H](C)S(=O)(=O)c2sc(S(N)(=O)=O)cc21 [Dorzolamide HCl] | 98.73 ± 0.8% | 104.2 ± 0.95% | 108 ± 1.7% | 106.3 ± 0.82% | 96.9 ± 2.5% | 103 ± 3.9% | 99 ± 2.7% | 103 ± 3.2% | 103 ± 1.3% | 103 ± 1.4% | 102 ± 3.7% | 97.53 ± 0.19%
16 | COc1cc2nc(N3CCN(C(=O)C4COc5ccccc5O4)CC3)nc(N)c2cc1OC (centres undefined) [Doxazosin mesylate] | 101 ± 0.75% | 99.06 ± 0.17% | 102.2 ± 0.51% | 100 ± 2.2% | 99.87 ± 0.89% | 95.9 ± 2.9% | 98.4 ± 1.8% | 95.8 ± 1.5% | 108 ± 2.6% | 101 ± 3.2% | 100.5 ± 0.52% | 88.314 ± 0.032%
17 | C[C@]12C=CC(=O)N[C@@H]1CC[C@@H]1[C@@H]2CC[C@]2(C)[C@@H](C(=O)Nc3cc(C(F)(F)F)ccc3C(F)(F)F)CC[C@@H]12 [Dutasteride (Avodart)] | 118 ± 1.5% | 116 ± 1.9% | 115 ± 2.4% | 96.4 ± 1.7% | 107.7 ± 0.56% | 98.5 ± 2.3% | 104 ± 1.4% | 105 ± 2.2% | 100.7 ± 0.37% | 101 ± 1.4% | 101 ± 1.5% | 94.61 ± 0.46%
